# Test results published in patent US9994546B2, “Cyclopropylamines as LSD1 inhibitors” (Incyte Corporation, priority 2014, dated 2018).
# Molecular target: LSD-1 enzyme (Homo sapiens (Human), UniProt O60341)
# Test: LANCE LSD1/KDM1A demethylase assay (LSD1 histone demethylase biochemical assay)
# Conditions: 1 nM LSD-1 enzyme, 1 hour preincubation at 25° C., 0.4 μM biotin-labeled Histone H3 peptide substrate
# Protocol: LANCE LSD1/KDM1A demethylase assay—10 μL of 1 nM LSD-1 enzyme (ENZO BML-SE544-0050) in the assay buffer (50 mM Tris, pH 7.5, 0.01% Tween-20, 25 mM NaCl, 5 mM DTT) were preincubated for 1 hour at 25° C. with 0.8 μL compound/DMSO dotted in black 384 well polystyrene plates. […] After stopping the reactions plates were incubated for 30 minutes and read on a PHERAstar FS plate reader (BMG Labtech).
row,SMILES,IC50 [nM]
1,"N#CCC1(N2CCC(N[C@@H]3C[C@H]3c3ccccc3)CC2)CN([C@H]2CC[C@H](O)CC2)C1 [Example 72, [1-(trans-4-hydroxycyclohexyl)-3-(4-{[(1R,2S)-2-phenylcyclopropyl]amino}piperidin-1-yl)azetidin-3-yl]acetonitrile]",≤ 100
2,"N#CCC1(N2CCC(NC3CC3c3ccccc3)CC2)CCC1 (racemic) [Example 1, (1-{4-[(trans-2-Phenylcyclopropyl)amino]piperidin-1-yl}cyclobutyl)acetonitrile]",≤ 100
3,"CCS(=O)(=O)N1CC(CC#N)(N2CCC(CN[C@@H]3C[C@H]3c3ccccc3)CC2)C1 (relative stereo) [Example 31, [1-(Ethylsulfonyl)-3-(4-{[(trans-2-phenylcyclopropyl)amino]methyl}piperidin-1-yl)azetidin-3-yl]acetonitrile]",100 to 500
4,"N#CCC1(N2CCC(N[C@@H]3C[C@H]3c3ccccc3)CC2)CN([C@H]2CC[C@@H](O)CC2)C1 [Example 73, [1-(cis-4-hydroxycyclohexyl)-3-(4-{[(1R,2S)-2-phenylcyclopropyl]amino}piperidin-1-yl)azetidin-3-yl]acetonitrile]",≤ 100
5,"N#CCC1(N2CCC(N[C@@H]3C[C@H]3c3ccccc3)CC2)CN(C(=O)N2CCOCC2)C1 [Example 86, [1-(morpholin-4-ylcarbonyl)-3-(4-{[(1R,2S)-2-phenylcyclopropyl]amino}piperidin-1-yl)azetidin-3-yl]acetonitrile]",≤ 100
6,"CS(=O)(=O)N1CC(CC#N)(N2CCC(N[C@@H]3C[C@H]3c3ccccc3)CC2)C1 (relative stereo) [Example 9, (1-(Methylsulfonyl)-3-{4-[(trans-2-phenylcyclopropyl)amino]piperidin-1-yl}azetidin-3-yl)acetonitrile]",≤ 100
7,"N#CCC1(N2CCC(N[C@@H]3C[C@H]3c3ccccc3)CC2)CN(c2ccc(C(=O)O)cc2C#N)C1 (relative stereo) [Example 11, 3-Cyano-4-(3-(cyanomethyl)-3-{4-[(trans-2-phenylcyclopropyl)amino]piperidin-1-yl}azetidin-1-yl)benzoic acid]",100 to 500
8,"N#CCC1(N2CCC(N[C@@H]3C[C@H]3c3ccccc3)CC2)CN(S(N)(=O)=O)C1 [Example 65, 3-(cyanomethyl)-3-(4-{[(1R,2S)-2-phenylcyclopropyl]amino}piperidin-1-yl)azetidine-1-sulfonamide]",≤ 100
9,"CN1CCC(CC#N)(N2CC(CN[C@@H]3C[C@H]3c3ccccc3)C2)CC1 (relative stereo) [Example 17, [1-Methyl-4-(3-{[(trans-2-phenylcyclopropyl)amino]methyl}azetidin-1-yl)piperidin-4-yl]acetonitrile]",≤ 100
10,"N#CCC1(N2CC(CN[C@@H]3C[C@H]3c3ccccc3)C2)CCNCC1 (relative stereo) [Example 16, [4-(3-{[(trans-2-Phenylcyclopropyl)amino]methyl}azetidin-1-yl)piperidin-4-yl]acetonitrile]",≤ 100
11,"CC(=O)N1CCC(CC#N)(N2CC(CN[C@@H]3C[C@H]3c3ccccc3)C2)CC1 (relative stereo) [Example 18, [1-Acetyl-4-(3-{[(trans-2-phenylcyclopropyl)amino]methyl}azetidin-1-yl)piperidin-4-yl]acetonitrile]",≤ 100
12,"CNC(=O)CC1(N2CCC(N[C@@H]3C[C@H]3c3ccccc3)CC2)CN(C(=O)N(C)C)C1 [Example 97, N,N-dimethyl-3-[2-(methylamino)-2-oxoethyl]-3-(4-{[(1R,2S)-2-phenylcyclopropyl]amino}piperidin-1-yl)azetidine-1-carboxamide]",≤ 100
13,"CN(C)C(=O)CC1(N2CCC(N[C@@H]3C[C@H]3c3ccccc3)CC2)CN(C(=O)N(C)C)C1 [Example 96, 3-[2-(dimethylamino)-2-oxoethyl]-N,N-dimethyl-3-(4-{[(1R,2S)-2-phenylcyclopropyl]amino}piperidin-1-yl)azetidine-1-carboxamide]",≤ 100
14,"N#CCC1(N2CCC(N[C@@H]3C[C@H]3c3ccccc3)CC2)CN(C(=O)c2nccs2)C1 [Example 120, [3-(4-{[(1R,2S)-2-phenylcyclopropyl]amino}piperidin-1-yl)-1-(1,3-thiazol-2-ylcarbonyl)azetidin-3-yl]acetonitrile]",≤ 100
15,"COC(=O)N1CC(CC#N)(N2CCC(N[C@@H]3C[C@H]3c3ccccc3)CC2)C1 (relative stereo) [Example 8, Methyl 3-(cyanomethyl)-3-{4-[(trans-2-phenylcyclopropyl)amino]piperidin-1-yl}azetidine-1-carboxylate]",≤ 100
16,"O=C(O)CC1(N2CCC(CN[C@@H]3C[C@H]3c3ccccc3)CC2)CNC1 (relative stereo) [Example 50, [3-(4-{[(trans-2-Phenylcyclopropyl)amino]methyl}piperidin-1-yl)azetidin-3-yl]acetic acid]",≤ 100

row,SMILES,IC50 [nM]
1,"CS(=O)(=O)N1CCC(CC#N)(N2CC(CN[C@@H]3C[C@H]3c3ccccc3)C2)CC1 (relative stereo) [Example 20, [1-(Methylsulfonyl)-4-(3-{[(trans-2-phenylcyclopropyl)amino]methyl}azetidin-1-yl)piperidin-4-yl]acetonitrile]",≤ 100
2,"COCC1(CN[C@@H]2C[C@H]2c2ccccc2)CCN(C2(CC(=O)O)CCC2)CC1 [Example 54, {1-[4-(methoxymethyl)-4-({[(1R,2S)-2-phenylcyclopropyl]amino}methyl)piperidin-1-yl]cyclobutyl}acetic acid]",≤ 100
3,"N#CCC1(N2CCC(N[C@@H]3C[C@H]3c3ccccc3)CC2)CN(C(=O)c2ccns2)C1 [Example 110, [1-(isothiazol-5-ylcarbonyl)-3-(4-{[(1R,2S)-2-phenylcyclopropyl]amino}piperidin-1-yl)azetidin-3-yl]acetonitrile]",≤ 100
4,"CN1CC(CC(=O)O)(N2CCC(N[C@@H]3C[C@H]3c3ccccc3)CC2)C1 [Example 66, [1-methyl-3-(4-{[(1R,2S)-2-phenylcyclopropyl]amino}piperidin-1-yl)azetidin-3-yl]acetic acid]",≤ 100
5,"N#CCC1(N2CC(CN[C@@H]3C[C@H]3c3ccccc3)C2)CCN(S(=O)(=O)c2ccccc2)CC1 (relative stereo) [Example 21, [4-(3-{[(trans-2-Phenylcyclopropyl)amino]methyl}azetidin-1-yl)-1-(phenylsulfonyl)piperidin-4-yl]acetonitrile]",≤ 100
6,"COC(=O)N1CC(CC#N)(N2CCC(CN[C@@H]3C[C@H]3c3ccccc3)CC2)C1 (relative stereo) [Example 41, Methyl 3-(cyanomethyl)-3-(4-{[(trans-2-phenylcyclopropyl)amino]methyl}piperidin-1-yl)azetidine-1-carboxylate]",≤ 100
7,"CNC(=O)CC1(N2CCC(N[C@@H]3C[C@H]3c3ccccc3)CC2)CN(C(=O)OC)C1 [Example 95, methyl 3-[2-(methylamino)-2-oxoethyl]-3-(4-{[(1R,2S)-2-phenylcyclopropyl]amino}piperidin-1-yl)azetidine-1-carboxylate]",≤ 100
8,"N#CCC1(N2CCC(CN[C@@H]3C[C@H]3c3ccccc3)CC2)CN(C(=O)c2ccccc2F)C1 (relative stereo) [Example 46, [1-(2-Fluorobenzoyl)-3-(4-{[(trans-2-phenylcyclopropyl)amino]methyl}piperidin-1-yl)azetidin-3-yl]acetonitrile]",≤ 100
9,"N#CCC1(N2CCC(CN[C@@H]3C[C@H]3c3ccccc3)CC2)CN(C(=O)Nc2ccc(F)cc2F)C1 (relative stereo) [Example 42, 3-(Cyanomethyl)-N-(2,4-difluorophenyl)-3-(4-{[(trans-2-phenylcyclopropyl)amino]methyl}piperidin-1-yl)azetidine-1-carboxamide]",≤ 100
10,"CN(C)C(=O)CC1(N2CCC(CN[C@@H]3C[C@H]3c3ccccc3)CC2)CNC1 (relative stereo) [Example 52, N,N-Dimethyl-2-(3-(4-((trans-2-phenylcyclopropylamino)methyl)piperidin-1-yl)azetidin-3-yl)acetamide]",≤ 100
11,"N#CCC1(N2CCC(CN[C@@H]3C[C@H]3c3ccccc3)CC2)CNC1 (relative stereo) [Example 33, [3-(4-{[(trans-2-Phenylcyclopropyl)amino]methyl}piperidin-1-yl)azetidin-3-yl]acetonitrile]",≤ 100
12,"CS(=O)(=O)N1CC(CC#N)(N2CCC(N[C@@H]3C[C@H]3c3ccccc3)CC2)C1 [Example 58, [1-(methylsulfonyl)-3-(4-{[(1R,2S)-2-phenylcyclopropyl]amino}piperidin-1-yl)azetidin-3-yl]acetonitrile]",≤ 100
13,"CNS(=O)(=O)N1CC(CC#N)(N2CCC(N[C@@H]3C[C@H]3c3ccccc3)CC2)C1 [Example 64, 3-(cyanomethyl)-N-methyl-3-(4-{[(1R,2S)-2-phenylcyclopropyl]amino}piperidin-1-yl)azetidine-1-sulfonamide]",≤ 100
14,"N#CCC1(N2CCC(N[C@@H]3C[C@H]3c3ccccc3)CC2)CN(C2CC(O)C2)C1 (stereo partly drawn) [Example 106, [1-(3-hydroxycyclobutyl)-3-(4-{[(1R,2S)-2-phenylcyclopropyl]amino}piperidin-1-yl)azetidin-3-yl]acetonitrile]",≤ 100
15,"CNC(=O)CN1CC(CC#N)(N2CCC(N[C@@H]3C[C@H]3c3ccccc3)CC2)C1 [Example 78, 2-[3-(cyanomethyl)-3-(4-{[(1R,2S)-2-phenylcyclopropyl]amino}piperidin-1-yl)azetidin-1-yl]-N-methylacetamide]",≤ 100
16,"N#CCC1(N2CCC(CN[C@@H]3C[C@H]3c3ccccc3)CC2)CCC1 (relative stereo) [Example 32, [1-(4-{[(trans-2-Phenylcyclopropyl)amino]methyl}piperidin-1-yl)cyclobutyl]acetonitrile]",≤ 100
